In ChEMBL document CHEMBL5653615 (J Biol Chem, 2013):

Legend:
[1] = biological target: Epidermal growth factor receptor (Homo sapiens) (UniProt P00533); assay: Inhibition of human EGFR at 500 nM by HotSpot assay relative to control
[2] = biological target: T1, Ephrin type-A receptor 8 (Homo sapiens) (UniProt P29322); assay: Inhibition of human EPHA8 at 500 nM by HotSpot assay relative to control
T1 sequence (whole entry): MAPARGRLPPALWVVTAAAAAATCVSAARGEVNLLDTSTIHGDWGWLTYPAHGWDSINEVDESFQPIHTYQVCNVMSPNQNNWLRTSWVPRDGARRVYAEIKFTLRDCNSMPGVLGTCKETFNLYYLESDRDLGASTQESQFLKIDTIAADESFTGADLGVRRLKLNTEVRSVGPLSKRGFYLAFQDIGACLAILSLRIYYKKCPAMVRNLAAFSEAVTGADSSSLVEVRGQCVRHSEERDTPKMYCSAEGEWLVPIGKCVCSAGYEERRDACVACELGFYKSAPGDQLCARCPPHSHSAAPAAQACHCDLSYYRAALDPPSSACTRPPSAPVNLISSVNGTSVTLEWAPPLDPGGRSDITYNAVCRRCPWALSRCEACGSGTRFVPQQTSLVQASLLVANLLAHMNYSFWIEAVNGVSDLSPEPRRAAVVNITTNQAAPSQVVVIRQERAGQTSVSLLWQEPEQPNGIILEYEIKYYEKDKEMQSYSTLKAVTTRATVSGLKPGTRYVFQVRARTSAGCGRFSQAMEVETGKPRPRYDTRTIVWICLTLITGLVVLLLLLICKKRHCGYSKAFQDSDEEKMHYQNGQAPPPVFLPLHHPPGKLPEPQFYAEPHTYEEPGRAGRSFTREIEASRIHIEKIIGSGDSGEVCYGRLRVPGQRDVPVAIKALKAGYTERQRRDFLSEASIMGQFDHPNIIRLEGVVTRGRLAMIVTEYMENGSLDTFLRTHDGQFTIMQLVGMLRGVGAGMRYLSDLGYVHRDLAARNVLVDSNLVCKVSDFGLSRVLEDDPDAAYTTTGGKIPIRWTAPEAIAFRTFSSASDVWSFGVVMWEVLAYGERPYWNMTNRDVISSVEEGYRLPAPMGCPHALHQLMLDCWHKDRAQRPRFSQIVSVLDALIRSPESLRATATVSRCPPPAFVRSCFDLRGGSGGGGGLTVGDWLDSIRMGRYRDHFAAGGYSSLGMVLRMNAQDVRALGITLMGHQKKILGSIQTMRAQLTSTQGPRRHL

[3] = biological target: Receptor tyrosine-protein kinase erbB-4 (Homo sapiens) (UniProt Q15303); assay: Inhibition of human ERBB4 at 500 nM by HotSpot assay relative to control
[4] = biological target: Macrophage colony-stimulating factor 1 receptor (Homo sapiens) (UniProt P07333); assay: Inhibition of human FMS at 500 nM by HotSpot assay relative to control
Sequence of Macrophage colony-stimulating factor 1 receptor (Homo sapiens) (P07333 whole entry): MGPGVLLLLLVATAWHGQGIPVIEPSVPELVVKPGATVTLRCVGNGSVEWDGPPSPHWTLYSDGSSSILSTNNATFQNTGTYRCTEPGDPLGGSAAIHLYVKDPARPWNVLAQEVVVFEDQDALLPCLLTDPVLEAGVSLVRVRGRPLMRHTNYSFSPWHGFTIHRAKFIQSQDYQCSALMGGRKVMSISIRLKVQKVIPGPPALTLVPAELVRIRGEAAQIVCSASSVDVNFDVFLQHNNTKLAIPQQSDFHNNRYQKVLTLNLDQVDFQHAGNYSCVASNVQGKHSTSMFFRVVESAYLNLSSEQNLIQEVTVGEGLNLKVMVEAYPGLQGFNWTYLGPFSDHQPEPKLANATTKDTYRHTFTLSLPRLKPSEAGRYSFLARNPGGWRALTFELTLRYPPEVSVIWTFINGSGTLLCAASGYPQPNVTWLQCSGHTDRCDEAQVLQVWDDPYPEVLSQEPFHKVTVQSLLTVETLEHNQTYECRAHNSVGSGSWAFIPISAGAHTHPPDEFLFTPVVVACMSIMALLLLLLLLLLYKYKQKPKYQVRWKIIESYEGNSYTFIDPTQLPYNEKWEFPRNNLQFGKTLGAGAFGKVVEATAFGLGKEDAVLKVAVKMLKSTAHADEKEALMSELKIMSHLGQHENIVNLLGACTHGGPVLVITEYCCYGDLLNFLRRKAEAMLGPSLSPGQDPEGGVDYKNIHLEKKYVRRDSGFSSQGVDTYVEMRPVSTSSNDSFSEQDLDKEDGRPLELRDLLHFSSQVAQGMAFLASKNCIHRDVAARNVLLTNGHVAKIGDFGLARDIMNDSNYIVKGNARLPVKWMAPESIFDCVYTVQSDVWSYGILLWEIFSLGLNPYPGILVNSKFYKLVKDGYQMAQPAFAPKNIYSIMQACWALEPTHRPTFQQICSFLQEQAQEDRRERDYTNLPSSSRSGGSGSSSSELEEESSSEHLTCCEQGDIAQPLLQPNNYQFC

[5] = biological target: Glycogen synthase kinase-3 beta (Homo sapiens) (UniProt P49841); assay: Inhibition of human GSK3b at 500 nM by HotSpot assay relative to control
Sequence of Glycogen synthase kinase-3 beta (Homo sapiens) (P49841 whole entry, looked up): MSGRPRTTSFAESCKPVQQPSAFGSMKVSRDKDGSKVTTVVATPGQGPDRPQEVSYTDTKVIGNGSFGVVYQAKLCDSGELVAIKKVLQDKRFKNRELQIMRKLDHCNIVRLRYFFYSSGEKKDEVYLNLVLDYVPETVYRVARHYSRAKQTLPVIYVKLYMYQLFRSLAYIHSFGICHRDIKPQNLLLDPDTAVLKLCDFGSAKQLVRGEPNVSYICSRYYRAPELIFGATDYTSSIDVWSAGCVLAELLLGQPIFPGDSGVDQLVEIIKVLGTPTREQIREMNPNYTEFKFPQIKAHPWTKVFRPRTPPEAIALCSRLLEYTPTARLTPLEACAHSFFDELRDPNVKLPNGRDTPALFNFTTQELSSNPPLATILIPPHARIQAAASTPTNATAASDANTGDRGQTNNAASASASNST

[6] = biological target: Dual specificity mitogen-activated protein kinase kinase 2 (Homo sapiens) (UniProt P36507); assay: Inhibition of human MEK2 at 500 nM by HotSpot assay relative to control
[7] = biological target: T2, Serine/threonine-protein kinase 3 (Homo sapiens) (UniProt Q13188); assay: Inhibition of human STK3 at 500 nM by HotSpot assay relative to control
T2 sequence (whole entry): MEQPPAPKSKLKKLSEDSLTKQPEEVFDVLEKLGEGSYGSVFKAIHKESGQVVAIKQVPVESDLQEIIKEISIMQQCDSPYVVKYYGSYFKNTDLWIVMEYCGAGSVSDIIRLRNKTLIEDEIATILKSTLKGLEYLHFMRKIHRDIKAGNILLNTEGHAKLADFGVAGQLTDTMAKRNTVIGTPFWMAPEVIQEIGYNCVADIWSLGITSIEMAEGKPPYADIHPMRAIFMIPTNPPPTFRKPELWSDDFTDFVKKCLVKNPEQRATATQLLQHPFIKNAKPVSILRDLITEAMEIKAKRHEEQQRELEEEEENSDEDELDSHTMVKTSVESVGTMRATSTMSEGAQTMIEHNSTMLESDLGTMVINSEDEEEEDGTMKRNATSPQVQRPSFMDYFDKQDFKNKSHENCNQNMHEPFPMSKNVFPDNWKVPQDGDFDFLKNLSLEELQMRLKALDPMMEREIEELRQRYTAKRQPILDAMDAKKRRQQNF

[8] = biological target: Serine/threonine-protein kinase 24 (Homo sapiens) (UniProt Q9Y6E0); assay: Inhibition of human STK24 at 500 nM by HotSpot assay relative to control
[9] = biological target: Platelet-derived growth factor receptor alpha (Homo sapiens) (UniProt P16234); assay: Inhibition of human PDGFRa at 500 nM by HotSpot assay relative to control
Sequence of Platelet-derived growth factor receptor alpha (Homo sapiens) (P16234 whole entry): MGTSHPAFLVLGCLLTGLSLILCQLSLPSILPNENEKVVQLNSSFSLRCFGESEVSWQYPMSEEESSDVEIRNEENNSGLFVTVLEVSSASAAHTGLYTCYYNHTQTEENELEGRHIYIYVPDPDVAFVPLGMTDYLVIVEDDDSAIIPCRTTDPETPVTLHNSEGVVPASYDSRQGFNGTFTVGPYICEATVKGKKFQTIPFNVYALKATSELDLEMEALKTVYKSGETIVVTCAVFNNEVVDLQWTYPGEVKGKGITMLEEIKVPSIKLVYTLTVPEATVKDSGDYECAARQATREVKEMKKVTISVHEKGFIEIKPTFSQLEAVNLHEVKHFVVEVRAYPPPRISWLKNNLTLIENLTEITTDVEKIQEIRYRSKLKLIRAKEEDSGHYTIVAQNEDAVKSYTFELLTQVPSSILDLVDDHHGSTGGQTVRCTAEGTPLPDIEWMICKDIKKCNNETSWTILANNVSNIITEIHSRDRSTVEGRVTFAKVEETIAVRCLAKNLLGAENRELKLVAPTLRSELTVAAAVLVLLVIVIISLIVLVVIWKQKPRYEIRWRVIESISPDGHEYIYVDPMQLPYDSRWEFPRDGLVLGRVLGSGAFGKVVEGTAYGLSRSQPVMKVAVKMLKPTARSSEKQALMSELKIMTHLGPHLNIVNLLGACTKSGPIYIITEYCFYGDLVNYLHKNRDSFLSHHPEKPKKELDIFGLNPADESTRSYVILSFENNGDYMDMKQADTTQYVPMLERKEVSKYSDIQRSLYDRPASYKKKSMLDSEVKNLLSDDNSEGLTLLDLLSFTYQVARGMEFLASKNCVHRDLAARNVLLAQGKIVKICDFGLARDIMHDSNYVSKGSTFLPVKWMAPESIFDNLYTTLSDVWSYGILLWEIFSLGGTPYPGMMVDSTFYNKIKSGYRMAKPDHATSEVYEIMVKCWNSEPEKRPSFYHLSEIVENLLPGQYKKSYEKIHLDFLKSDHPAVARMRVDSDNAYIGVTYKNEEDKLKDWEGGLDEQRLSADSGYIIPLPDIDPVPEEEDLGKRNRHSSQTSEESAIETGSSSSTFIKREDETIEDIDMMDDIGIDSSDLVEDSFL

[10] = biological target: T3, Serine/threonine-protein kinase D2 (Homo sapiens) (UniProt Q9BZL6); assay: Inhibition of human PRKD2 at 500 nM by HotSpot assay relative to control
T3 sequence (whole entry): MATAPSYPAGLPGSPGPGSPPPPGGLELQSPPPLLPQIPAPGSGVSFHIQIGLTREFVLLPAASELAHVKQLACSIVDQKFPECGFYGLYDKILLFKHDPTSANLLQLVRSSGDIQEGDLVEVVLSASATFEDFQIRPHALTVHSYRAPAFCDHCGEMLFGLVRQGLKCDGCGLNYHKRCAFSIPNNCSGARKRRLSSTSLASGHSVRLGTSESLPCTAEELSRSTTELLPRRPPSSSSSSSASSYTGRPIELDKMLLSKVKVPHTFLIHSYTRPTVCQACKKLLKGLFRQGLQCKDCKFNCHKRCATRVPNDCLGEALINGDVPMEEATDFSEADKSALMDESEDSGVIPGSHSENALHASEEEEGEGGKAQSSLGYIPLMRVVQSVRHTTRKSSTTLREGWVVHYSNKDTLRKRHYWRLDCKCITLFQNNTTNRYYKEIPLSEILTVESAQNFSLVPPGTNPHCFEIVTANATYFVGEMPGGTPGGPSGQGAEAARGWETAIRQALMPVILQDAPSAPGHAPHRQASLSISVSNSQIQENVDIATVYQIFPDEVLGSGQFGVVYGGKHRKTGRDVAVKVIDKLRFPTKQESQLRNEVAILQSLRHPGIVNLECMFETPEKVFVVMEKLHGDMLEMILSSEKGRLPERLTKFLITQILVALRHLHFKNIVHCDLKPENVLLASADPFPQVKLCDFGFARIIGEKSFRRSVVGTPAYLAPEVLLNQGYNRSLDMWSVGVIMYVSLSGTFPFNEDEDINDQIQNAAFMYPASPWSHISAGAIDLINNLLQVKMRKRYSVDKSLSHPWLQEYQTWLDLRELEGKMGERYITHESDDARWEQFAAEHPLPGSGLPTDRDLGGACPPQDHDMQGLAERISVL

[11] = biological target: Angiopoietin-1 receptor (Homo sapiens) (UniProt Q02763); assay: Inhibition of human TEK at 500 nM by HotSpot assay relative to control
Sequence of Angiopoietin-1 receptor (Homo sapiens) (Q02763 whole entry): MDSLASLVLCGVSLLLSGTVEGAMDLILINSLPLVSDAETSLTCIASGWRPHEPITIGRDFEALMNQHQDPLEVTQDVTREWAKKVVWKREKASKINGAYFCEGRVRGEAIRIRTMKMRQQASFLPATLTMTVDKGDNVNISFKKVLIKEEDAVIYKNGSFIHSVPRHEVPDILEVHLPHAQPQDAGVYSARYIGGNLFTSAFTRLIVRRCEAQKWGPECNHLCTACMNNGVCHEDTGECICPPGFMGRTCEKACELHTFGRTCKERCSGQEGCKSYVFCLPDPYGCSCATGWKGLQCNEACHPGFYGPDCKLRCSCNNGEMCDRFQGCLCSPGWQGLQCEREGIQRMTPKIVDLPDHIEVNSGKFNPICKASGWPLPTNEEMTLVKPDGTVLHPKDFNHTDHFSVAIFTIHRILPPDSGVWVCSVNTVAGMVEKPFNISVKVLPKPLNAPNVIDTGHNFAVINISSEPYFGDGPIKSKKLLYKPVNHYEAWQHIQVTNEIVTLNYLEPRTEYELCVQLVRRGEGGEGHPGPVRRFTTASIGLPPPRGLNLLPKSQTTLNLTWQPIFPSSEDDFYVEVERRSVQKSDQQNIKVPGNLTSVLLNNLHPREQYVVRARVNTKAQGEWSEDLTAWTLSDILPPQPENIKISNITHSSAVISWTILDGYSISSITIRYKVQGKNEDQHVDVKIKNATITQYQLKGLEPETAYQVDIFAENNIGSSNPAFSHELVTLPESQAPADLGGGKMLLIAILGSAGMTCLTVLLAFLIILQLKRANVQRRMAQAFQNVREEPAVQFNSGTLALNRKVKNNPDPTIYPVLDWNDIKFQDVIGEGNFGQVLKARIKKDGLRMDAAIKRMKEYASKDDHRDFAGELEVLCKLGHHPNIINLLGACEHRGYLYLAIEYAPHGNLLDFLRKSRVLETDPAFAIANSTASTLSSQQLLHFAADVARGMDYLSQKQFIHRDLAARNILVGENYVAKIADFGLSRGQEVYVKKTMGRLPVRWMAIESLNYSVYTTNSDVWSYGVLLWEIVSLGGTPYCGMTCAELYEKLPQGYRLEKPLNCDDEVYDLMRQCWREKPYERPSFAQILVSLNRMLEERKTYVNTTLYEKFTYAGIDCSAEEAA

Sequence of Epidermal growth factor receptor (Homo sapiens) (P00533 whole entry): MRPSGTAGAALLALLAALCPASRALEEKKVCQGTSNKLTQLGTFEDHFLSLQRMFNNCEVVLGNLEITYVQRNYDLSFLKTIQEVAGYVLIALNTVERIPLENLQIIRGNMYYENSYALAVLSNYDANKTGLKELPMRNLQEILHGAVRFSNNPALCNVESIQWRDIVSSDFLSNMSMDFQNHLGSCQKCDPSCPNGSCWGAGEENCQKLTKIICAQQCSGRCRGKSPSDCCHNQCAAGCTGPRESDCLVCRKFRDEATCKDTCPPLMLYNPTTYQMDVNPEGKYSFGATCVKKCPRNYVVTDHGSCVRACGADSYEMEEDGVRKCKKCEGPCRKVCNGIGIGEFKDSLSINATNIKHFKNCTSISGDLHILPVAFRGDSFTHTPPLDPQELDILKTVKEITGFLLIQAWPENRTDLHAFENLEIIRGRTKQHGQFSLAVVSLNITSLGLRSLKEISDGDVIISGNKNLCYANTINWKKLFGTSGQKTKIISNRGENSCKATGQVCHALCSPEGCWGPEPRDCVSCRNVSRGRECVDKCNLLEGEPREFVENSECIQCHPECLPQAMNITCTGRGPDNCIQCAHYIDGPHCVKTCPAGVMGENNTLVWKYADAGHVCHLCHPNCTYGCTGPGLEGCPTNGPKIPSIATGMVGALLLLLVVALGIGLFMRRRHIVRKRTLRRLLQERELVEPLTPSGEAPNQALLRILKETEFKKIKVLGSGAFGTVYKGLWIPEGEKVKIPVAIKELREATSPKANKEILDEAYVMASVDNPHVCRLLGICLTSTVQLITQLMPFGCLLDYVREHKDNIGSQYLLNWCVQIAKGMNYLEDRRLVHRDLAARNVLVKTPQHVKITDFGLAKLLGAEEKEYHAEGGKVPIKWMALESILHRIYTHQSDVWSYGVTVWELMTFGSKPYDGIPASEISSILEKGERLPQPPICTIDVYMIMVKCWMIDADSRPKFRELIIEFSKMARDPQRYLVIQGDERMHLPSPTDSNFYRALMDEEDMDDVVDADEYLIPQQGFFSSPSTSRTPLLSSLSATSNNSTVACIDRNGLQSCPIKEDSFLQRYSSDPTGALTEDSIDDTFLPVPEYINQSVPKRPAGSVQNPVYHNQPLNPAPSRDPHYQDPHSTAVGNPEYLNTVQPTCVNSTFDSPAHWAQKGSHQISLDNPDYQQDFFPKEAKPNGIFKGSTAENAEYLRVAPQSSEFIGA

Row | Compound | inhibition [1] | inhibition [2] | inhibition [3] | inhibition [4] | inhibition [5] | inhibition [6] | inhibition [7] | inhibition [8] | inhibition [9] | inhibition [10] | inhibition [11]
1 | Nc1n[nH]c2nnc(-c3c(-c4ccccc4)nn4ccccc34)cc12 | 16.1% | -0.31% | 8.64% | 3.19% | -9.06% | 0.62% | -2.01% | 25.4% | 0.32% | 45.9% | 3.45%
2 | Oc1n[nH]c2nnc(-c3c(-c4ccccc4)nn4ccccc34)cc12 | 10% | -2.05% | -0.52% | 5% | -9.9% | 1.44% | 0.75% | -2.3% | -1.33% | 2.86% | 4.05%
